# Data as given in patent US11078519B2, “Bioluminescent assays utilising secreted luciferases” (GENE STREAM PTY LTD., priority 2006, dated 2021).
# Legend:
# [1] = system: non-secreted Gaussia luciferase; assay: Kinetic luminescence assay of non-secreted Gaussia luciferase in HeLa cell lysate with reducing agent in assay buffer; format: biochemical; details: for decay in luminescent signal over time compared with absence of reducing agent: all concentrations tested: DTT 4-50 mM, β-mercaptoethanol 10-100 mM, TCEP 500 uM or 5 mM, FIGS. 1A, 1B
# Experimental: HeLa cells stably expressing non-secreted and destabilized Gaussia luciferase were plated onto 96-well plates and incubated overnight. The non-secreted luciferase is a modified Gaussia luciferase in which the 14 amino acid N-terminal signal peptide has been deleted. The destabilised luciferase is an enzyme containing a destabilising element such that it has a shortened half-life and is expressed at lower steady-state level than in the absence of the destabilising element.
# Following the overnight incubation, medium was removed and the cells lysed in 20 ul lysis buffer comprising 25 mM Tris pH 8.1, 150 mM NaBr, 1 mM EDTA, 63.4 uM sodium oxalate, 0.1% NP40 substitute, 5% glycerol (GSv3). Luciferase activity was measured in a kinetic assay following injection of 60 ul of an assay buffer comprising 25 mM Tris pH 8.1; 1 mM EDTA, 2 mM Ascorbate and 26 uM Cz (STD), or the same assay buffer but also containing a reducing agent. Various concentrations of three reducing agents were used: DTT (4 mM, 10 mM, 20 mM or 50 mM); β-mercaptoethanol (10 mM, 20 mM, 50 mM, or 100 mM); and TCEP (500 uM or 5 mM). […] The effect was strongest at higher concentrations of a given reducing agent. […] The inventors have determined that this higher concentration produced beneficial effects in terms of bioluminescence generated by Gaussia luciferase. […]
# [2] = system: non-secreted Metridia luciferase; assay: Kinetic luminescence assay of non-secreted Metridia luciferase in HeLa cell lysate; format: biochemical; details: up to 120 minutes
# Excerpt: (§1) HeLa cells were transiently transfected with expression plasmids encoding either Gaussia or Metridia luciferases in either their native secreted form or a modified non-secreted form. Secreted Metridia luciferase was obtained from Clontech and non-secreted Metridia luciferase was created in an analogous way to non-secreted Gaussia luciferase. The coding region was obtained by PCR using primers that delete the first 16 amino acids after ATG (the secretion signal) and the stop codon. The PCR product was ligated into a pRR23.1 plasmid (GeneStream, AU) to create a non-secreted but destabilized Metridia luciferase.
# One day after transfection conditioned medium was removed for the secreted luciferases and the non-secreted luciferases were lysed as described in Example 1. Aliquots (20 ul) of conditioned medium or lysate were assayed for luciferase activity in kinetic assays following manual injection of assay buffer comprising the indicated concentrations of DTT in 25 mM Tris pH 7.75; 1 mM EDTA; 2 mM Ascorbic acid and 26 uM coelenterazine.
# Experiments were performed as described in Example 5 for the non-secreted Gaussia and Metridia luciferases, except that the reducing agents used were: dithioerythritol (DTE) (FIGS. 6A and 6D); sodium sulfite (FIG. 6B); cysteamine (FIGS. 6C and 6E); TCEP (FIG. 6F); and β-mercaptoethanol (FIG. 6G).
# [3] = biological target: T1, intracellular Renilla luciferase (Renilla reniformis, UniProt P27652); assay: Kinetic luminescence assay of Renilla luciferase in HeLa cell lysate; format: biochemical; details: 50 mM DTT in assay buffer; FIG. 4
# T1 construct: expressed in transfected cells; host or cells: HeLa, transient; cell lysate
# T1 sequence (P27652 1-311): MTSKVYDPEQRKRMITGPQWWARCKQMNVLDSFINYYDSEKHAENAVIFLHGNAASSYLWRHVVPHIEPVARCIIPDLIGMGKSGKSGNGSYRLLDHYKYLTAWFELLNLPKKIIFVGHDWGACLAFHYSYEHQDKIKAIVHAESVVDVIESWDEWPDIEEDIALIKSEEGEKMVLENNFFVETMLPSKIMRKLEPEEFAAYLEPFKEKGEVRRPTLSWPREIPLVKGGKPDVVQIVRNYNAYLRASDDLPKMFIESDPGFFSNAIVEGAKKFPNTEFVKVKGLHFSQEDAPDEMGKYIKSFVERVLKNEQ
# Experimental: Similar experiment to those described in Example 1 were performed, with the exception that the HeLa cells transiently expressed the intracellular Renilla luciferase. A kinetic assay was performed after injection of assay buffer (with 50 mM DTT or no DTT) into wells containing 20 ul of lysate.
# [4] = Background luminescent signal in lysate of non-transfected HeLa cells; details: DTT in assay buffer
# Experimental: (§2) Non-transfected HeLa cells and HeLa cells expressing non-secreted Gaussia luciferase were subjected to luciferase assays as follows. Cells were plated in equal aliquots onto a 96-well plate and incubated overnight. Medium was removed and cells lysed in 20 ul of the lysis buffer described in Example 1. Forty minutes later, light emission was measured using a Wallac Victor 3 luminometer (Perkin Elmer) immediately before and after injection of 60 ul of assay buffer comprised 25 mM Tris pH 8.1, 23.6 uM coelenterazine, 1 mM EDTA, 2 mM ascorbate plus the indicated concentration of DTT (see FIG. 8).
# [5] = system: non-secreted Gaussia luciferase; assay: Flash intensity of non-secreted Gaussia luciferase in HeLa cell lysate; format: biochemical; details: 50 mM DTT in assay buffer; FIG. 12C
# Experimental: as §2
# [6] = system: secreted Metridia luciferase; assay: Kinetic luminescence assay of secreted Metridia luciferase in conditioned medium; format: biochemical; details: varying DTT in assay buffer; up to 120 minutes; FIG. 5D
# Excerpt: as §1, with “Metridia luciferase. One day after transfection conditioned medium was removed for the secreted luciferases and the non-secreted luciferases were lysed as described in Example 1. Aliquots (20 ul) of conditioned medium or lysate were assayed for luciferase activity in kinetic assays following manual injection of assay buffer comprising the indicated concentrations of DTT in 25 mM Tris pH 7.75; 1 mM EDTA; 2 mM Ascorbic acid and 26 uM coelenterazine.” for “Metridia luciferase.”
# [7] = system: non-secreted and destabilized Gaussia luciferase; assay: Dual-luciferase assay (Gaussia then firefly) in HeLa cell lysate; format: biochemical; details: Gaussia assay buffer with 50 mM DTT; FIG. 8
# Experimental: HeLa cells stably expressing both a non-secreted and destabilized Gaussia luciferase and a destabilized firefly luciferase were plated onto 96-well plates and incubated overnight. Medium was removed and the cells lysed in 20 ul of the lysis buffer described in Example 1. Light emission was measured for 1 sec in a luminometer at the following times: immediately before addition of assay buffer (LB=background signal in absence of substrate); immediately after addition of Gaussia assay buffer (Ga) comprising 25 mM Tris pH 8.1; 1 mM EDTA, 2 mM Ascorbate, 23.6 uM Cz and 50 mM DTT; 15 mins after addition of Ga assay buffer (15 mins); and subsequently at 1 sec after addition of 60 ul of a firefly assay buffer (FF) comprising 25 mM Tris pH 7.35, 6 mM MgSO4, 36 mM DTT, 0.11 mM EDTA, 0.58 mM ATP, 0.3 mM CoA, 0.52 mM Luciferin, 1 mg/ml BSA. The results shown in FIG. 8 illustrate a strong Gaussia luciferase bioluminescent signal that can be measured in a flash reaction but which decays to background levels within approximately 15 mins without intervention or the need to add quenching reagents. Subsequent addition of a firefly reagent allows measurement of the firefly signal, thus completing a dual-luciferase assay.
# [8] = system: secreted Gaussia luciferase; assay: Secreted Gaussia luciferase signal in cell lysate, lysis buffer with DTT; format: biochemical; details: 50 mM DTT in lysis buffer; 2 hour time-point, without doxycycline; FIG. 11B
# Experimental: To test this hypothesis, HeLa cells were co-transfected with plasmids TRE-Rn and CMV-Ga (wild type, secreted), either alone or in combination. The latter provides constitutive expression of secreted Gaussia luciferase, whilst the former provides a doxycycline-repressible expression of intracellular Renilla luciferase. The cells were incubated overnight, the medium was removed and the cells rinsed once before addition of a fresh aliquot of medium either with or without 2 ug/ml doxycyline. At 2, 6 and 24 hrs later, samples of conditioned medium were taken. The cells were rinsed in fresh medium before being lysed using lysis buffer comprising 25 mM Tris pH 8.1, 150 mM NaBr, 1 mM EDTA, 63.4 uM sodium oxalate, 0.1% NP40 substitute, 5% glycerol; either with or without 50 mM DTT. 20 ul aliquots of conditioned medium and cell lysate were then assayed for luciferase activity following addition of 60 ul of assay buffer comprising 25 mM Tris pH 7.75; 1 mM EDTA; 2 mM Ascorbic acid and 26 uM coelenterazine.
# [9] = system: wild-type secreted Gaussia luciferase; assay: Kinetic luminescence assay of secreted Gaussia luciferase in conditioned medium; format: biochemical
# Experimental: Similar experiments were performed as described in Example 1 with the exception that the effect of DTT on the time course of luminescence was also investigated for the wild-type secreted Gaussia luciferase. This was achieved by transiently transfecting HeLa cells with a reporter plasmid encoding the wild-type Gaussia luciferase protein and harvesting the conditioned medium 24 hrs later. The assay buffer (with either 50 mM DTT or no DTT) was injected into wells containing 20 ul of the conditioned medium. Results were expressed as the % signal remaining compared to time zero (see FIG. 3).
# as §1
# One day after transfection conditioned medium was removed for the secreted luciferases and the non-secreted luciferases were lysed as described in Example 1. […]
# [10] = system: destabilised, non-secreted Gaussia luciferase; details: fresh assay buffer with glutathione; FIG. 14
# Experimental: HeLa cells expressing a destabilised, non-secreted Gaussia luciferase were plated in equal aliquots onto 96-well plates and incubated overnight. The same lysis buffer was used for all samples. […] The assay buffers were then stored at room temperature for 4 hrs and used again to measure replicate samples.
# [11] = system: destabilised, non-secreted Gaussia luciferase; details: 5 mM glutathione (3:2 reduced:oxidized); fresh buffer; FIG. 15
# Experimental: HeLa cells expressing a destabilised, non-secreted Gaussia luciferase were plated in equal aliquots onto 96-well plates and incubated overnight. The same lysis buffer was used for all samples. Luciferase activity was measured using fresh assay buffer containing the total amounts of glutathione (3:2 ratio of reduced:oxidized) indicated in FIG. 15. The assay buffers were then stored at room temperature for 7 hrs or at 4° C. for 22 hrs and used again to measure replicate samples.
# [12] = varying concentrations of reducing agent, up to 50 minutes, FIGS. 6D-6G
# [13] = varying concentrations of reducing agent, FIGS. 6A-6C
smiles,measurement,setting,value
OCCS [β-mercaptoethanol],decay in luminescent signal over time compared with absence of reducing agent,[1],more rapid decay in luminescent signal
same,light emission over time,[1]; [12],rapid decline in light emission
O=S([O-])[O-].[Na+].[Na+] [sodium sulfite],light emission over time,[2]; [13],rapid decline in light emission
"O[C@H](CS)[C@@H](O)CS [DTE, dithioerythritol]",light emission over time,[2]; [13],rapid decline in light emission
same,light emission over time,[1]; [12],rapid decline in light emission
"O[C@H](CS)[C@H](O)CS [DTT, dithiothreitol]",kinetics of light emission,[3],prolongs the light emission
same,reduction in the background signal generated by the assay buffer,"[4]; after subtraction of the pre-read, FIG. 12B",more than 80%
same,reduction in the overall background signal,"[4]; raw RLU after injection, FIG. 12A",more than 50%
same,light emission over time,"[2]; varying DTT in assay buffer, FIG. 5C",very rapid decline in light emission
same,true luciferase signal in flash reactions,[5],does not reduce the true luciferase signal
same,light emission over time,[6],very rapid decline in light emission
same,time for Gaussia luciferase signal to decay to background levels,[7],≤ 15 min
same,signal in the lysate of cells expressing only Gaussia luciferase,[8],no signal was detected
same,light emission over time (% signal remaining compared to time zero),"[9]; 50 mM DTT in assay buffer, native secreted form, conditioned medium, FIG. 3",very rapid decline in light emission
same,light emission over time,"[9]; varying DTT in assay buffer, up to 120 minutes, FIG. 5B",very rapid decline in light emission
same,light emission over time (% signal remaining compared to time zero),"[1]; 50 mM DTT in assay buffer, modified non-secreted form, FIG. 3",very rapid decline in light emission
same,time for signal to drop to approximately background levels (~100 RLU),"[1]; DTT 50 mM to 500 mM, all concentrations, FIG. 2B",≤ 10 min
same,rate of decay in luminescent signal versus concentration,"[1]; DTT 50 mM to 500 mM, FIG. 2A",directly related to the concentration of DTT
same,light emission after addition during glow phase (% of light units at time zero),"[1]; DTT added 40 minutes after initiation of reaction, FIG. 7",rapid decline in light emission
same,light emission during the first few seconds after injection of the reducing agent,"[1]; DTT added during glow phase, FIG. 7",lack of any significant decay in light emission
same,decay in luminescent signal over time compared with absence of reducing agent,[1],more rapid decay in luminescent signal
same,initial signal intensity,[1]; up to 50 mM DTT,does not cause any reduction in initial signal intensity
same,light emission over time,"[1]; varying DTT in assay buffer, up to 120 minutes, FIG. 5A",very rapid decline in light emission
NCCS [cysteamine],light emission over time,[2]; [13],rapid decline in light emission
same,light emission over time,[1]; [12],rapid decline in light emission
"O=C(O)CCP(CCC(=O)O)CCC(=O)O [TCEP, tris(2-carboxyethyl)phosphine]",decay in luminescent signal over time compared with absence of reducing agent,[1],more rapid decay in luminescent signal
same,light emission over time,[1]; [12],rapid decline in light emission
N[C@@H](CCC(=O)N[C@@H](CS)C(=O)NCC(=O)O)C(=O)O [glutathione],baseline activity of the fresh buffers,[10],reduces the assay buffer activity
same,initial activity of assay buffer,[11],initial activity was reduced
